In PubChem BioAssay (NCI):
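Following 48 hours of exposure in 96-well plates, responses at five concentrations were used to interpolate endpoints linearly. The concentration for 50% growth inhibition is given as GI50. TGI marks complete inhibition of growth.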

Key:
Test in all cases: DTP human tumour cell line panel, 48 h
[1] = test system: U251 CNS
[2] = test system: MALME-3M melanoma
[3] = test system: SF-268 CNS
[4] = test system: HOP-62 NSCLC
[5] = test system: M14 melanoma
[6] = test system: HCC-2998 colon
[7] = test system: OVCAR-8 ovarian
[8] = test system: COLO 205 colon
[9] = test system: HT29 colon
[10] = test system: DMS 273 small cell lung

SMILES	GI50 [1]	TGI [1]	GI50 [2]	TGI [2]	GI50 [3]	TGI [3]	GI50 [4]	TGI [4]	GI50 [5]	TGI [5]	GI50 [6]	TGI [6]	GI50 [7]	TGI [7]	GI50 [8]	TGI [8]	GI50 [9]	TGI [9]	TGI [10]
NCc1ccc(-n2c(-c3nonc3N)nc3cnccc32)cc1	8.94 µM	> 25 µM	> 25 µM	> 25 µM	5.26 µM	> 25 µM	> 14.4 µM	> 25 µM	> 25 µM	> 25 µM	23.8 µM	> 25 µM	6.76 µM	> 25 µM	5.53 µM	> 25 µM	7.58 µM	> 25 µM	
Cc1ncc([N+](=O)[O-])n1CCNC(=O)CCCn1cnc([N+](=O)[O-])n1		> 100 µM		> 100 µM		> 100 µM		> 100 µM		> 100 µM		> 100 µM		> 100 µM		> 100 µM		> 100 µM	
CC1=CC(=O)C(C(C)=Nc2ccccc2Cl)C(=O)O1 (stereo not drawn)	> 100 µM	> 100 µM	> 100 µM	> 100 µM	> 100 µM	> 100 µM	> 100 µM	> 100 µM	> 100 µM	> 100 µM	> 100 µM	> 100 µM	> 100 µM	> 100 µM	> 100 µM	> 100 µM	> 100 µM	> 100 µM	
COc1ccc(/C=C2\CCCC3=C2NC(C)=NC3c2ccc(OC)c(OC)c2)cc1OC (stereo not drawn)	23.4 µM	> 100 µM	22.2 µM	> 100 µM	21 µM	> 100 µM	3.75 µM	38.8 µM	18.6 µM	> 100 µM	> 100 µM	> 100 µM	4.68 µM	> 100 µM	5.5 µM	> 100 µM	21.7 µM	> 100 µM	
CC1CC2(CC[C@@H]1O)OCCO2 (stereo partly drawn)		> 100 µM		> 100 µM				> 100 µM		> 100 µM		> 100 µM		> 100 µM		> 100 µM		> 100 µM	> 100 µM
CCOC(=O)/C(C#N)=C1\N[C@H](C(=O)OCC)CO1		> 100 µM		> 100 µM		> 100 µM		> 100 µM		> 100 µM		> 100 µM		> 100 µM		> 100 µM		> 100 µM	
CCOc1ccc(NC(=O)CC2SC(N)=NC2=O)cc1 (stereo not drawn)		> 100 µM		> 100 µM		> 100 µM		> 100 µM		> 100 µM		> 100 µM		> 100 µM		> 100 µM		> 100 µM	
COC(=O)[C@@H]1CCCN1C(=O)[C@@H]1CCCN1C(=O)[C@@H](Cc1c[nH]c2ccccc12)NC(=S)Nc1cc(C(F)(F)F)cc(C(F)(F)F)c1	4.31 µM	95.3 µM	5.17 µM	24.7 µM	6.44 µM	> 100 µM	8.35 µM	> 100 µM	4.68 µM	21.1 µM	2.9 µM	9.05 µM	5.83 µM	> 100 µM	2.41 µM	5.5 µM	3.68 µM	23.3 µM	
